Counter-ions that a name gives are not always drawn.
Columns and labels:
[1] = target: Norepinephrine Transport (Homo sapiens, UniProt P23975); assay: Norepinephrine transporter binding
Text: Further, the compounds of the invention may be tested in binding assays and functional activity assays by well known methods for other physiologically important receptors such as, but not limited to, the hERG channel, other serotonin receptors (specifically 5-HT1B and 5-HT1D receptors, lack of agonist activity at 5-HT2B receptors, 5-HT2C, 5-HT5, 5-HT6, and 5-HT7 receptors), dopaminergic receptors (specifically D1, D2, and D3), GABAA receptors, adrenergic receptors and monoamine transporters.

[2] = tested on: male Wistar rats; assay: Sleep and behavioral monitoring in rats (EEG, EMG, motion); type: in vivo; settings: for Rebound Insomnia Adj. Mean: NREM+REM sleep in 7th-9th hours post-treatment; for Rebound Insomnia Adj. Mean / Cumulative Total sleep Adj. Mean / REM inhibition Adj. Mean / Cumulative NREM sleep Adj. Mean / Locomotor Activity Intensity Adj. Mean: adjusted difference from vehicle; for Cumulative Total sleep Adj. Mean: NREM+REM; for Cumulative Total sleep Adj. Mean / Average Sleep Bout Adj. Mean / Longest Sleep Bout Adj. Mean / Cumulative NREM sleep Adj. Mean / Locomotor Activity Intensity Adj. Mean: first 6 hr. post-treatment; for REM inhibition Adj. Mean: cumulative REM sleep, first 12 hr. post-treatment
Description: The compound of the present invention is tested in rats for its ability to increase the amount of sleep or decrease sleep interruption or both without undesired effects such as inhibition of REM sleep, waking motor impairment, and/or rebound insomnia. Test animals are continuously monitored by electro-encephalograms (EEG), electromyograms (EMG), and motion to measure cumulative nonREM sleep, cumulative total sleep, average sleep bout duration, longest sleep bout duration, rebound insomnia, REM sleep inhibition and locomotor activity intensity during wakefulness. Methods for such studies are known in the art (see for example methods described in Edgar D M, Seidel W F. Modafinil induces wakefulness without intensifying motor activity or subsequent rebound hypersomnolence in the rat. J Pharmacology & Experimental Therapeutics 1997; 283: 757-769; van Gelder R N, Edgar D M, Dement W C. Real-time automated sleep scoring: validation of a microcomputer-based system for mice. Sleep 1991, 14: 48-55; and Gross B A, Walsh C M, Turakhia A A, Booth V, Mashour G A, Poe G R. Open-source logic-based automated sleep scoring software using electrophysiological recordings in rats. J Neurosci Methods. 2009; 184(1):10-8.) Studies are conducted as follows:
Adult, male Wistar rats (approximately 270-300 g at time of surgery) are surgically fitted for chronic recording of EEG, EMG, and motion as follows: Rats are surgically prepared with a cranial implant consisting of four stainless steel screws for EEG recording (two frontal [3.9 mm anterior from bregma, and ±2.0 mm mediolaterally] and two occipital [6.4 mm posterior from bregma, ±5.5 mm mediolaterally]), and with two Teflon-coated stainless steel wires for EMG recording (positioned under the nuchal trapezoid muscles). All leads are soldered to a miniature connector (Microtech, Boothwyn, Pa.) prior to surgery. The implant assembly is affixed to the skull by the combination of the stainless steel EEG recording screws, cyanoacrylate applied between the implant connector and skull, and dental acrylic. Locomotor activity is monitored via a miniature transmitter (Minimitter PDT4000G, Philips Respironics, Bend, Oreg.) surgically placed into the abdomen. At least 3 weeks are allowed for recovery.
Each rat is housed individually within a microisolator cage modified with an inserted polycarbonate filter-top riser to allow more vertical headroom. A flexible cable that minimally restricts movement is connected at one end to a commutator afixed to the cage top and at the other end to the animal's cranial implant. Each cage is located within separate, ventilated compartments of a stainless steel sleep-wake recording chamber. Food and water are available ad libitum and the ambient temperature is maintained at about 23±1° C. A 24-hr light-dark cycle (LD 12:12) using fluorescent light is maintained throughout the study. Relative humidity averages approximately 50%. Animals are undisturbed for at least 30 his before and after each treatment.
The vehicle (placebo, methylcellulose 15 centipoise 0.25% in water) or one of the test compound dose levels is administered orally at 1 mL/kg pseudo-randomly such that no rat receives the same treatment twice, and no rat receives more than two of the 8 treatments in any one study. Each rat is removed from its cage for about a minute to be weighed and treated. At least 6 days “washout” period precede and follow each treatment. […]

[3] = threshold efficacy dose, 6 hr. after treatment, 4 parameter logistic regression, freebase
[4] = within 10 times the most conservative efficacy dose (0.78 mg/kg)

Sequence of Norepinephrine Transport (P23975 whole entry): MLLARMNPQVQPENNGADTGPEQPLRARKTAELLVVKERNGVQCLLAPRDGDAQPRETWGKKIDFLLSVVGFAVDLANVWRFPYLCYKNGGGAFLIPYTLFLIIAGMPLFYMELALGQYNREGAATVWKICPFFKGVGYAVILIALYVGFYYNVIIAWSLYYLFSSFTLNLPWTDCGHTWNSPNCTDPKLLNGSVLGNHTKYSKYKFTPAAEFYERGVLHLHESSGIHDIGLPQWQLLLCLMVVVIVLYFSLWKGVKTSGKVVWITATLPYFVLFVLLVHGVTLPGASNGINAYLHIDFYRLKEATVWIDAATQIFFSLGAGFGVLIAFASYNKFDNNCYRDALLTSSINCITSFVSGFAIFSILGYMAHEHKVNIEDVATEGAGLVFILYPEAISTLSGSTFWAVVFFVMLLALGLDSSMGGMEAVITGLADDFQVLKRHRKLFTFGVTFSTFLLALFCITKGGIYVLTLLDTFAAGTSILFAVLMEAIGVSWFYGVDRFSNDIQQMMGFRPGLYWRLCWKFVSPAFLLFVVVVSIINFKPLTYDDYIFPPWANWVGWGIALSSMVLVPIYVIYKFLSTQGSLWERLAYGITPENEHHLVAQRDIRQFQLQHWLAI

**Q.** Which results are given for `Cc1ccc2c(c1)Oc1sc(C3CC3)cc1C(N1CCN(CC(C)(C)C(=O)O)CC1)=N2` [Example 2, 3-[4-(2-Cyclopropyl-8-methyl-thieno[2,3-b][1,5]benzoxazepin-4-yl)piperazin-1-yl]-2,2-dimethyl-propanoic acid dihydrochloride]?
**A.** Ki [1]: > 0.671 µM; Rebound Insomnia Adj. Mean ([2]; 0.025 mg/kg PO): 0.40 min; Cumulative Total sleep Adj. Mean ([2]; 0.025 mg/kg PO): 3.6 min; REM inhibition Adj. Mean ([2]; 0.025 mg/kg PO): 5.0 min; Average Sleep Bout Adj. Mean ([2]; 0.025 mg/kg PO): 1.08 n-fold increase over vehicle controls; Longest Sleep Bout Adj. Mean ([2]; 0.025 mg/kg PO): 1.26 n-fold increase over vehicle controls; Cumulative NREM sleep Adj. Mean ([2]; 0.025 mg/kg PO): -2.3 min; Locomotor Activity Intensity Adj. Mean ([2]; 0.025 mg/kg PO): −1.40 LMA counts per minute of EEG-defined wakefulness; Rebound Insomnia Adj. Mean ([2]; 0.1 mg/kg PO): -0.027 min; Cumulative Total sleep Adj. Mean ([2]; 0.1 mg/kg PO): 16.9 min; REM inhibition Adj. Mean ([2]; 0.1 mg/kg PO): -0.71 min; Average Sleep Bout Adj. Mean ([2]; 0.1 mg/kg PO): 1.19 n-fold increase over vehicle controls; Longest Sleep Bout Adj. Mean ([2]; 0.1 mg/kg PO): 1.07 n-fold increase over vehicle controls; Cumulative NREM sleep Adj. Mean ([2]; 0.1 mg/kg PO): 15.4 min; Locomotor Activity Intensity Adj. Mean ([2]; 0.1 mg/kg PO): 0.41 LMA counts per minute of EEG-defined wakefulness; Rebound Insomnia Adj. Mean ([2]; 0.25 mg/kg PO): 2.2 min; Cumulative Total sleep Adj. Mean ([2]; 0.25 mg/kg PO): 23.0 min; REM inhibition Adj. Mean ([2]; 0.25 mg/kg PO): 2.8 min; Average Sleep Bout Adj. Mean ([2]; 0.25 mg/kg PO): 1.34 n-fold increase over vehicle controls; Longest Sleep Bout Adj. Mean ([2]; 0.25 mg/kg PO): 1.55 n-fold increase over vehicle controls; Cumulative NREM sleep Adj. Mean ([2]; 0.25 mg/kg PO): 19.1 min; Locomotor Activity Intensity Adj. Mean ([2]; 0.25 mg/kg PO): −0.31 LMA counts per minute of EEG-defined wakefulness; Rebound Insomnia Adj. Mean ([2]; 0.5 mg/kg PO): -5.0 min; Cumulative Total sleep Adj. Mean ([2]; 0.5 mg/kg PO): 32.6 min; REM inhibition Adj. Mean ([2]; 0.5 mg/kg PO): 2.3 min; Average Sleep Bout Adj. Mean ([2]; 0.5 mg/kg PO): 1.59 n-fold increase over vehicle controls; Longest Sleep Bout Adj. Mean ([2]; 0.5 mg/kg PO): 1.81 n-fold increase over vehicle controls; Cumulative NREM sleep Adj. Mean ([2]; 0.5 mg/kg PO): 30.6 min; Locomotor Activity Intensity Adj. Mean ([2]; 0.5 mg/kg PO): −1.30 LMA counts per minute of EEG-defined wakefulness; Rebound Insomnia Adj. Mean ([2]; 1 mg/kg PO): -0.6 min; Cumulative Total sleep Adj. Mean ([2]; 1 mg/kg PO): 33.2 min; REM inhibition Adj. Mean ([2]; 1 mg/kg PO): 1.2 min; Average Sleep Bout Adj. Mean ([2]; 1 mg/kg PO): 1.60 n-fold increase over vehicle controls; Longest Sleep Bout Adj. Mean ([2]; 1 mg/kg PO): 2.16 n-fold increase over vehicle controls; Cumulative NREM sleep Adj. Mean ([2]; 1 mg/kg PO): 31.0 min; Locomotor Activity Intensity Adj. Mean ([2]; 1 mg/kg PO): −2.33 LMA counts per minute of EEG-defined wakefulness; Rebound Insomnia Adj. Mean ([2]; 3 mg/kg PO): 1.6 min; Cumulative Total sleep Adj. Mean ([2]; 3 mg/kg PO): 31.6 min; REM inhibition Adj. Mean ([2]; 3 mg/kg PO): 0.042 min; Average Sleep Bout Adj. Mean ([2]; 3 mg/kg PO): 1.92 n-fold increase over vehicle controls; Longest Sleep Bout Adj. Mean ([2]; 3 mg/kg PO): 2.16 n-fold increase over vehicle controls; Cumulative NREM sleep Adj. Mean ([2]; 3 mg/kg PO): 30.1 min; Locomotor Activity Intensity Adj. Mean ([2]; 3 mg/kg PO): 0.01 LMA counts per minute of EEG-defined wakefulness; Rebound Insomnia Adj. Mean ([2]; 10 mg/kg PO): 3.3 min; Cumulative Total sleep Adj. Mean ([2]; 10 mg/kg PO): 26.3 min; REM inhibition Adj. Mean ([2]; 10 mg/kg PO): -7.3 min; Average Sleep Bout Adj. Mean ([2]; 10 mg/kg PO): 1.56 n-fold increase over vehicle controls; Longest Sleep Bout Adj. Mean ([2]; 10 mg/kg PO): 2.12 n-fold increase over vehicle controls; Cumulative NREM sleep Adj. Mean ([2]; 10 mg/kg PO): 26.9 min; Locomotor Activity Intensity Adj. Mean ([2]; 10 mg/kg PO): −0.89 LMA counts per minute of EEG-defined wakefulness; REM sleep inhibition (in words) ([2]; at 3 mg/kg): without significant; cumulative NREM sleep time (in words) ([2]; at 3 mg/kg): significantly increase; cumulative total sleep time (in words) ([2]; at 3 mg/kg): significantly increase; inhibition of locomotor intensity (LMI) (in words) ([2]; at 3 mg/kg): without significant; rebound insomnia (in words) ([2]; at 3 mg/kg): without significant; REM sleep inhibition versus threshold value ([2]; at 10 mg/kg, threshold −10 min. cumulative REM sleep (lower confidence limit)): exceeds the threshold value; change in awake time following treatment (dose response curve, FIG. 2) ([2]; dose response): does not result in rebound insomnia; change in cumulative REM sleep time (dose response curve, FIG. 1) ([2]; dose response): does not inhibit REM sleep; change in distances moved during periods of wakefulness (dose response curve, FIG. 3) ([2]; dose response): does not inhibit or stimulate normal activity; Estimated efficacy dose (mg/kg), NREM accumulation = 30 min. [2, 3]: 0.78 mg/kg; Estimated efficacy dose (mg/kg), average sleep bout (1.5-fold increase) [2, 3]: 0.33 mg/kg; Estimated efficacy dose (mg/kg), longest sleep bout (1.75-fold increase) [2, 3]: 0.33 mg/kg; Estimated efficacy dose (mg/kg), total sleep accumulation = 25 min. [2, 3]: 0.19 mg/kg; undesired occurrences of REM inhibition [2, 4]: no undesired occurrences; undesired occurrences of rebound insomnia [2, 4]: no undesired occurrences; undesired occurrences of reduction in LMI [2, 4]: no undesired occurrences
